Legend:
Assay type in all cases: cell-based, mouse
sortilin = experiment: Western blot for sortilin expression in treated 3T3L1 cells; details: 500 nM, added day 3 of differentiation, maintained to day 8; whole cell lysate
Procedure: (§1) 2-(3,5-Dioxo-4-azatricyclo[5.2.1.0˜2,6˜]dec-8-en-4-yl)-4-methylpentanoic acid and 4-[(3,4-dichlorophenyl)amino]-3-(3-methylbenzyl)-4-oxobutanoic acid were used to treat 3T3L1 cells at 500 nM concentration on day 3 of differentiation and maintained in culture up to day 8 when the cells mature into adipocytes with well-developed lipid bodies. Whole cell lysate was isolated and western blot analysis was performed using anti-sortilin antibody. […] To determine the compounds effect sortilin gene expression, 3T3L1 cells were treated as above and total RNA was isolated. RT-PCR was performed using sortilin primers.

sortilin mRNA = experiment: RT-PCR for sortilin mRNA in treated 3T3L1 cells; details: 500 nM, added day 3 of differentiation, maintained to day 8; total RNA
Procedure: as §1

3T3L1 cells = experiment: [3-H]-deoxy-2-D-Glucose uptake in 3T3L1 adipocytes; details: 500 nM; for glucose uptake: added day 3 of differentiation, maintained to day 8, without insulin; for glucose uptake with addition of insulin: day 3 to day 8, 100 nM insulin for 30 minutes
Procedure: To examine glucose uptake, 3T3L1 cells were treated on day 3 of differentiation with either 2-(3,5-dioxo-4-azatricyclo[5.2.1.0(2,6)]dec-8-en-4-yl)-4-methylpentanoic acid or 4-[(3,4-dichlorophenyl)amino]-3-(3-methylbenzyl)-4-oxobutanoic acid at 500 nM concentration and maintained in culture up to day 8 when the cells mature into adipocytes with well-developed lipid bodies. After 100 nM insulin was added to cells and maintained for 30 minutes, [3-H]-deoxy-2-D-Glucose uptake was measured.

SMILES	sortilin expression (western blot, anti-sortilin antibody) (sortilin)	mRNA levels of sortilin (RT-PCR) (sortilin mRNA)	glucose uptake (3T3L1 cells)	glucose uptake with addition of insulin (3T3L1 cells)
Cc1cccc(CC(CC(=O)O)C(=O)Nc2ccc(Cl)c(Cl)c2)c1 (centres unmarked) [4-[(3,4-dichlorophenyl)amino]-3-(3-methylbenzyl)-4-oxobutanoic acid]	increase in sortilin expression	not affected	increase in glucose uptake	further increased
CC(C)CC(C(=O)O)N1C(=O)C2C3C=CC(C3)C2C1=O (centres unmarked) [2-(3,5-dioxo-4-azatricyclo[5.2.1.0(2,6)]dec-8-en-4-yl)-4-methylpentanoic acid]	increase in sortilin expression	not affected	increase in glucose uptake	further increased

From patent US10849896B2, “Sortilin-binding small molecules for increasing glucose uptake” (University of South Florida, priority 2015, dated 2020)
